{"source": "patent US10791741B2", "about": "“Plant growth regulator” (JIANGSU HUIFENG BIO TECHNOLOGY CO., LTD., priority 2016, dated 2020)", "tested_on": "melon", "experiment": "Comprehensive test on growth regulation for melon by thidiazuron combined with amino-oligosaccharin", "assay_type": "in vivo", "conditions": "42 mg/kg", "protocol": "1. Comprehensive Test on Growth Regulation for Melon by Thidiazuron Combined with Amino-Oligosaccharin\nThe thidiazuron and amino-oligosaccharin were diluted with acetone to give a series of concentrations, and the crops were sprayed in the flowering phase to determine the effect of each concentration on crop growth in the field, so as to make a comprehensive evaluation with respect to the carpopodium diameter, fruit setting rate, disease inhibition rate, quality, and yield of the crops. Carpopodium diameter increase rate=(Plant height in water control group−Plant height in treatment group)/Plant height in water control group*100% Fruit setting increase rate=(Stem diameter in treatment group−Stem diameter in water control group)/Stem diameter in water control group*100% Disease reduction rate=(Disease index in water control group−Disease index in treatment group)/Disease index in water control group*100% Single fruit weight increase rate=(weight in treatment group−quality in water control group)/weight in water control group*100% Central sugar increase rate=(Central sugar content in treatment group−Central sugar content in water control group)/Central sugar content in water control group*100%", "key": {"[1]": {"conditions": "flowering phase, vs water control"}, "[2]": {"conditions": "sprayed in flowering phase, 1 application"}}}
{"compound": "O=C(Nc1ccccc1)Nc1cnns1", "note": "[Thidiazuron, thidiazuron]", "values": [{"measurement": "Anthracnose index reduction rate (disease reduction rate)", "setting": "[1]", "value": 17.6, "unit": "%"}, {"measurement": "Carpopodium diameter increase rate", "setting": "[1]", "value": 4.0, "unit": "%"}, {"measurement": "Central sugar increase rate", "setting": "[1]", "value": 7.4, "unit": "%"}, {"measurement": "Fruit setting increase rate", "setting": "[1]", "value": 8.6, "unit": "%"}, {"measurement": "Single fruit weight increase rate", "setting": "[1]", "value": 8.9, "unit": "%"}, {"measurement": "Anthracnose index", "setting": "[2]", "value": 17.76}, {"measurement": "Carpopodium diameter", "setting": "[2]", "value": 6.65, "unit": "mm"}, {"measurement": "Central sugar content", "setting": "[2]", "value": 9.36, "unit": "%"}, {"measurement": "Fruit setting rate", "setting": "[2]", "value": 27.0, "unit": "%"}, {"measurement": "Single fruit weight", "setting": "[2]", "value": 1.03, "unit": "kg"}]}
